Consider 23 compounds from patent US20250376445A1, “COMPOUNDS AND METHODS FOR YAP/TEAD MODULATION AND INDICATIONS THEREFOR” (OPNA BIO SA, priority 2023, published 2025).

By IC50 is commonly meant the concentration that gives 50% inhibition.

This experiment concerns TEAD-dependent transcription. In words: TEAD-dependent transcription cell-based reporter assay (MSTO-211H+12XGTIIC luciferase). Set-up: species or system human. The conditions noted are these: Homo sapiens; MSTO-211H+12XGTIIC reporter cells, 24 hours compound incubation, luminescence normalized to viability; read-out: MSTO-211H GMean IC50 (uM) Cell Assay Reporter Cell Variant: TEAD. The source says:
The human mesothelioma cell line MSTO-211H was stably transfected with a pGL4.21 plasmid containing a synthetic promoter with 12 copies of the GTIIC TEAD response element that drives the expression of a luciferase reporter gene^1 using Lipofectamine transfection reagent (Thermo Fisher). Transfected cells were selected using puromycin and single cell clones expressing this construct (referred to as MSTO-211H+12XGTIIC) were generated by limiting dilution. MSTO-211H cells was characterized by genetic alterations in key components of the Hippo pathway^2, resulting in up-regulation of YAP/TEAD-mediated transcription. […] To evaluate TEAD inhibitors, the MSTO-211H+12XGTIIC cell line was seeded in a 96-well plate in 50 μL of culture media at 1×10^4 cells per well and incubated at 37° C. overnight. Serial dilutions of compounds (in total volume of 50 μL of culture media) were added to the cells and incubated at 37° C. for 24 hours. Each plate included cells treated with DMSO as high controls and cells treated with 20 μM of the reference compound K-975 (a known TEAD inhibitor)^3 as low controls. Cell viability was assayed by the addition of 25 μL of CellTiter-Fluor reagent (Promega) followed by a 30-minute incubation at 37° C. and quantification of the fluorescence signal (Ex400/Em505). Subsequently, luciferase expression was assayed by the addition of 25 μL of ONE-Glo reagent (Promega) followed by a 10-minute incubation at room temperature and quantification of the luminescence signal. The luminescence signal was normalized to the fluorescence signal to correct for any loss in cell viability over the 24-hour compound incubation period. The percentage of inhibition of normalized luminescence signal, indicative of compound-mediated inhibition of TEAD-dependent transcription, at individual compound concentrations relative to high and low controls was calculated. The data were analyzed by using nonlinear regression to generate IC50 values for individual compounds.
Background: Reporter assays use an easily measured gene product as a stand-in for the process of interest.
Take `O=C(CCS(=O)(=O)C(F)(F)F)N1CCc2c(Cc3ccc(C(F)(F)F)cc3)cccc2C1` [O-0001, 1-(5-(4-(trifluoromethyl)benzyl)-3,4-dihydroisoquinolin-2(1H)-yl)-3-((trifluoromethyl)sulfonyl)propan-1-one]: the IC50 was in the range of 0.001 to 10 µM.

For the compound `O=C(CCS(=O)(=O)C(F)(F)F)N1CCc2c(cccc2C(F)c2ccc(C(F)(F)F)cc2)C1` (centres unmarked) [O-0002, 1-(5-(fluoro(4-(trifluoromethyl)phenyl)methyl)-3,4-dihydroisoquinolin-2(1H)-yl)-3-((trifluoromethyl)sulfonyl)propan-1-one], the IC50 fell in the range of 0.001 to 10 µM.

Regarding `O=C(CCS(=O)(=O)C(F)(F)F)N1CCc2c(cccc2C(O)c2ccc(C(F)(F)F)cc2)C1` (centres unmarked) [O-0004, 1-(5-(hydroxy(4-(trifluoromethyl)phenyl)methyl)-3,4-dihydroisoquinolin-2(1H)-yl)-3-((trifluoromethyl)sulfonyl)propan-1-one], the IC50 was in the range of 0.001 to 10 µM.

As to `O=C(c1ccc(C(F)(F)F)cc1)c1cccc2c1CCN(C(=O)CCS(=O)(=O)C(F)(F)F)C2` [O-0005, 1-(5-(4-(trifluoromethyl)benzoyl)-3,4-dihydroisoquinolin-2(1H)-yl)-3-((trifluoromethyl)sulfonyl)propan-1-one], the IC50 was 0.001 to 10 µM.

Turning to `O=C(CCS(=O)(=O)C(F)(F)F)N1CCc2c(cccc2C(F)c2ccc(C(F)(F)F)nc2)C1` (centres unmarked) [O-0008, 1-(5-(fluoro(6-(trifluoromethyl)pyridin-3-yl)methyl)-3,4-dihydroisoquinolin-2(1H)-yl)-3-((trifluoromethyl)sulfonyl)propan-1-one], the IC50 was 0.001 to 10 µM.

Turning to `O=C(CCS(=O)(=O)C(F)(F)F)N1CCc2c(cccc2C(F)(F)c2ccc(C(F)(F)F)nc2)C1` [O-0009, 1-(5-(difluoro(6-(trifluoromethyl)pyridin-3-yl)methyl)-3,4-dihydroisoquinolin-2(1H)-yl)-3-((trifluoromethyl)sulfonyl)propan-1-one], the IC50 was in the range of 0.001 to 10 µM.

`CS(=O)(=O)c1nccc(C(=O)N2CCc3c(cccc3C(=O)c3ccc(C(F)(F)F)cc3)C2)n1` [O-0033, (2-(methylsulfonyl)pyrimidin-4-yl)(5-(4-(trifluoromethyl)benzoyl)-3,4-dihydroisoquinolin-2(1H)-yl)methanone]: the IC50 was 0.001 to 10 µM.

As to `O=C(c1ccc(C(F)(F)F)cc1)c1cccc2c1CCN(C(=O)c1c[nH]c(C(F)(F)F)n1)C2` [O-0037, (2-(trifluoromethyl)-1H-imidazol-4-yl)(5-(4-(trifluoromethyl)benzoyl)-3,4-dihydroisoquinolin-2(1H)-yl)methanone], the IC50 was 0.001 to 10 µM.

With `CS(=O)(=O)c1nc(C(=O)N2CCc3c(cccc3C(=O)c3ccc(C(F)(F)F)cc3)C2)c[nH]1` [O-0038, (2-(methylsulfonyl)-1H-imidazol-4-yl)(5-(4-(trifluoromethyl)benzoyl)-3,4-dihydroisoquinolin-2(1H)-yl)methanone], the IC50 lay in the range of 0.001 to 10 µM.

For `O=C(c1ccc(C(F)(F)F)cc1)c1cccc2c1CCN(C(=O)c1cccc3[nH]c(C(F)(F)F)nc13)C2` [O-0046, (2-(trifluoromethyl)-1H-benzo[d]imidazol-4-yl)(5-(4-(trifluoromethyl)benzoyl)-3,4-dihydroisoquinolin-2(1H)-yl)methanone], the IC50 lay within 0.001 to 10 µM.

As for `O=C(c1ccc(C(F)(F)F)cc1)c1cccc2c1CCN(C(=O)Cc1c[nH]cn1)C2` [O-0047, 2-(1H-imidazol-4-yl)-1-(5-(4-(trifluoromethyl)benzoyl)-3,4-dihydroisoquinolin-2(1H)-yl)ethan-1-one], the IC50 is 0.001 to 10 µM.

For `O=C(c1ccc(C(F)(F)F)cc1)c1cccc2c1CCN(C(=O)CCc1cnc[nH]1)C2` [O-0048, 3-(1H-imidazol-5-yl)-1-(5-(4-(trifluoromethyl)benzoyl)-3,4-dihydroisoquinolin-2(1H)-yl)propan-1-one], the IC50 was 0.001 to 10 µM.

For the compound `CS(=O)(=O)c1nc(C(=O)N2CCc3c(cccc3C(F)c3ccc(C(F)(F)F)cc3)C2)c[nH]1` (centres unmarked) [O-0054, (5-(fluoro(4-(trifluoromethyl)phenyl)methyl)-3,4-dihydroisoquinolin-2(1H)-yl)(2-(methylsulfonyl)-1H-imidazol-4-yl)methanone], the IC50 lay in the range of 0.001 to 10 µM.

For `O=C(c1c[nH]c(C(F)(F)F)n1)N1CCc2c(cccc2C(F)c2ccc(C(F)(F)F)cc2)C1` (centres unmarked) [O-0055, (5-(fluoro(4-(trifluoromethyl)phenyl)methyl)-3,4-dihydroisoquinolin-2(1H)-yl)(2-(trifluoromethyl)-1H-imidazol-4-yl)methanone], the IC50 was 0.001 to 10 µM.

For the compound `O=C(Cc1cscn1)N1CCc2c(cccc2C(F)c2ccc(C(F)(F)F)cc2)C1` (centres unmarked) [O-0056, 1-(5-(fluoro(4-(trifluoromethyl)phenyl)methyl)-3,4-dihydroisoquinolin-2(1H)-yl)-2-(thiazol-4-yl)ethan-1-one], the IC50 was in the range of 0.001 to 10 µM.

Turning to `CCOC(c1ccc(C(F)(F)F)cc1)c1cccc2c1CCN(C(=O)CCS(C)(=O)=O)C2` (centres unmarked) [O-0057, 1-(5-(ethoxy(4-(trifluoromethyl)phenyl)methyl)-3,4-dihydroisoquinolin-2(1H)-yl)-3-(methylsulfonyl)propan-1-one], the IC50 is 0.001 to 10 µM.

On to `CS(=O)(=O)c1nccc(C(=O)N2CCc3ccc(C(=O)c4ccc(C(F)(F)F)cc4)cc3C2)n1` [O-0058, (2-(methylsulfonyl)pyrimidin-4-yl)(7-(4-(trifluoromethyl)benzoyl)-3,4-dihydroisoquinolin-2(1H)-yl)methanone], for which the IC50 was in the range of 0.001 to 10 µM.

For `O=C(CCc1cnc[nH]1)N1CCc2ccc(C(F)(F)c3ccc(C(F)(F)F)nc3)cc2C1` [O-0059, 1-(7-(difluoro(6-(trifluoromethyl)pyridin-3-yl)methyl)-3,4-dihydroisoquinolin-2(1H)-yl)-3-(1H-imidazol-5-yl)propan-1-one], the IC50 was 0.001 to 10 µM.

Take `O=C(Cc1cnc[nH]1)N1CCc2ccc(C(F)(F)c3ccc(C(F)(F)F)nc3)cc2C1` [O-0060, 1-(7-(difluoro(6-(trifluoromethyl)pyridin-3-yl)methyl)-3,4-dihydroisoquinolin-2(1H)-yl)-2-(1H-imidazol-5-yl)ethan-1-one]: the IC50 is 0.001 to 10 µM.

For `CS(=O)(=O)c1nc(C(=O)N2CCc3ccc(C(F)(F)c4ccc(C(F)(F)F)nc4)cc3C2)c[nH]1` [O-0061, (7-(difluoro(6-(trifluoromethyl)pyridin-3-yl)methyl)-3,4-dihydroisoquinolin-2(1H)-yl)(2-(methylsulfonyl)-1H-imidazol-4-yl)methanone], the IC50 was in the range of 0.001 to 10 µM.

`O=C(CCS(=O)(=O)C(F)(F)F)N1CCc2ccc(C(F)(F)c3ccc(C(F)(F)F)nc3)cc2C1` [O-0062, 1-(7-(difluoro(6-(trifluoromethyl)pyridin-3-yl)methyl)-3,4-dihydroisoquinolin-2(1H)-yl)-3-((trifluoromethyl)sulfonyl)propan-1-one]: the IC50 was 0.001 to 10 µM.

Take `O=C(CCS(=O)(=O)C(F)(F)F)N1CCc2ccc(C(F)c3ccc(C(F)(F)F)nc3)cc2C1` (centres unmarked) [O-0063, 1-(7-(fluoro(6-(trifluoromethyl)pyridin-3-yl)methyl)-3,4-dihydroisoquinolin-2(1H)-yl)-3-((trifluoromethyl)sulfonyl)propan-1-one]: the IC50 was 0.001 to 10 µM.

On to `CS(=O)(=O)c1nc(C(=O)N2CCc3ccc(C(=O)c4ccc(C(F)(F)F)cc4)cc3C2)c[nH]1` [O-0064, (2-(methylsulfonyl)-1H-imidazol-4-yl)(7-(4-(trifluoromethyl)benzoyl)-3,4-dihydroisoquinolin-2(1H)-yl)methanone], for which the IC50 is 0.001 to 10 µM.
